# Data published in patent publication US10730874B2 (Shire Human Genetic Therapies, Inc., priority 2018, dated 2020).
# Biological target: human activated kallikrein enzyme (plasma kallikrein) (Homo sapiens (Human), UniProt P03952)
# Assay: Inhibition of human activated plasma kallikrein, fluorogenic peptide substrate assay, 500 pM enzyme format
# Format: biochemical
# Details: 500 pM activated kallikrein enzyme, 300 uM Pro-Phe-Arg-7-amido-4-methylcoumarin substrate, 30 min preincubation, 10 min at RT; read-out: Primary Dose Response Assay: Average EC50
# Procedure: Example compounds were evaluated for inhibition of the human activated kallikrein enzyme in two formats of an assay employing a fluorogenic peptide substrate. In one assay format, the concentrations of reagents were as follows: 20 mM Tris pH 7.5, 1 mM EDTA, 150 mM sodium chloride, 0.1% PEG-400, 0.1% Triton X-100, 500 pM activated kallikrein enzyme, 300 uM Pro-Phe-Arg-7-amido-4-methylcoumarin substrate. Prior to reaction initiation with substrate, enzyme and inhibitors were preincubated for 30 min at RT. After initiation with substrate, reactions were incubated for 10 min at RT and fluorescence emission at 460 nm from 380 nm excitation measured with a microplate reader. In another assay format, the concentrations of reagents were as follows: 20 mM Tris pH 7.5, 1 mM EDTA, 150 mM sodium chloride, 0.1% PEG-400, 0.1% Triton X-100, 5 pM activated kallikrein enzyme, 300 uM Pro-Phe-Arg-7-amido-4-methylcoumarin substrate. Prior to reaction initiation with substrate, enzyme and inhibitors were preincubated for 30 min at RT. After initiation with substrate, reactions were incubated for 18 h at RT and fluorescence emission at 460 nm from 380 nm excitation measured with a microplate reader.
# Chain of human activated kallikrein enzyme (plasma kallikrein) (P03952 391-638): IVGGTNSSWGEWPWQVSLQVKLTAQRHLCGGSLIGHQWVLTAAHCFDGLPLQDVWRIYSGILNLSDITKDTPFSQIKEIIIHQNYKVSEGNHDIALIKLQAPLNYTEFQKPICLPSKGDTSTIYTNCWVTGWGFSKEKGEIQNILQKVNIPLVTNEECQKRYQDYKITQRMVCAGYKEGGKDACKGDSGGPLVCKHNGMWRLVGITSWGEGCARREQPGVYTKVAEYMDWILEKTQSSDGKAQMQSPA
# Chain of human activated kallikrein enzyme (plasma kallikrein) (P03952 20-390 partner): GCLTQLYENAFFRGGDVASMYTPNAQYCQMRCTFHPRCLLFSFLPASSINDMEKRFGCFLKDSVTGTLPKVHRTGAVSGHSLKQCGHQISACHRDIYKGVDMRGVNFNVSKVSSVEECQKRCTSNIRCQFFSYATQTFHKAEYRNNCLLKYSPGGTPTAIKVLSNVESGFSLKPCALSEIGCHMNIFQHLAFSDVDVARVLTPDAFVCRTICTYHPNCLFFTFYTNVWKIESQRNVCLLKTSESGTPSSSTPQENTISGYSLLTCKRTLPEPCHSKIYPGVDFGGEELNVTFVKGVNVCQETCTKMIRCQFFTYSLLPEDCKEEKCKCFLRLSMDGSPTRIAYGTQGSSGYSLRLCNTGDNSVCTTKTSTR
row,EC50 [nM],SMILES
1,10 to 100,"O=C(NCc1ncn2ccc(Cl)cc12)c1cnn(Cc2ccc3ncc(Cl)cc3c2)c1 [Example I-1, N-((7-chloroimidazo[1,5-a]pyridin-1-yl)methyl)-1-((3-chloroquinolin-6-yl)methyl)-1H-pyrazole-4-carboxamide]"
2,< 1,"O=C(NCc1ncn2ccc(Cl)cc12)c1cnn(Cc2cn3cc(C4CC4)ccc3n2)c1 [Example I-2, N-((7-chloroimidazo[1,5-a]pyridin-1-yl)methyl)-1-((6-cyclopropylimidazo[1,2-a]pyridin-2-yl)methyl)-1H-pyrazole-4-carboxamide]"
3,10 to 100,"O=C(NCc1ncn2ccc(Cl)cc12)c1ccnc(Cc2ccc3ncc(Cl)cc3c2)c1 [Example I-3, N-((7-chloroimidazo[1,5-a]pyridin-1-yl)methyl)-2-((3-chloroquinolin-6-yl)methyl)isonicotinamide]"
4,1 to 10,"Cc1ccn2cnc(CNC(=O)c3cnn(Cc4cn5cc(C6CC6)ccc5n4)c3)c2c1 [Example I-4, 1-((6-cyclopropylimidazo[1,2-a]pyridin-2-yl)methyl)-N-((7-methylimidazo[1,5-a]pyridin-1-yl)methyl)-1H-pyrazole-4-carboxamide]"
5,1 to 10,"O=C(NCc1ncn2ccc(Cl)cc12)c1cnn(Cc2nc3ccc(C4CC4)cn3n2)c1 [Example I-6, N-((7-chloroimidazo[1,5-a]pyridin-1-yl)methyl)-1-((6-cyclopropyl-[1,2,4]triazolo[1,5-a]pyridin-2-yl)methyl)-1H-pyrazole-4-carboxamide]"
6,1 to 10,"Cc1c(Cl)ccc2nc(Cn3cc(C(=O)NCc4ncn5ccc(Cl)cc45)cn3)cn12 [Example I-7, 1-((6-chloro-5-methylimidazo[1,2-a]pyridin-2-yl)methyl)-N-((7-chloroimidazo[1,5-a]pyridin-1-yl)methyl)-1H-pyrazole-4-carboxamide]"
7,< 1,"CC(C)c1ccc2nc(Cn3cc(C(=O)NCc4ncn5ccc(Cl)cc45)cn3)cn2c1 [Example I-8, N-((7-chloroimidazo[1,5-a]pyridin-1-yl)methyl)-1-((6-isopropylimidazo[1,2-a]pyridin-2-yl)methyl)-1H-pyrazole-4-carboxamide]"
8,10 to 100,"Cc1cccc2nc(Cn3cc(C(=O)NCc4ncn5ccc(Cl)cc45)cn3)cn12 [Example I-9, N-((7-chloroimidazo[1,5-a]pyridin-1-yl)methyl)-1-((5-methylimidazo[1,2-a]pyridin-2-yl)methyl)-1H-pyrazole-4-carboxamide]"
9,1 to 10,"Cc1cc2nc(Cn3cc(C(=O)NCc4ncn5ccc(Cl)cc45)cn3)cn2cc1C1CC1 [Example I-16, N-((7-chloroimidazo[1,5-a]pyridin-1-yl)methyl)-1-((6-cyclopropyl-7-methylimidazo[1,2-a]pyridin-2-yl)methyl)-1H-pyrazole-4-carboxamide]"

row,SMILES,EC50 [nM]
1,"O=C(NCc1ncn2ccc(Br)cc12)c1cnn(Cc2cn3cc(C4CC4)ccc3n2)c1 [Example I-5, N-((7-bromoimidazo[1,5-a]pyridin-1-yl)methyl)-1-((6-cyclopropylimidazo[1,2-a]pyridin-2-yl)methyl)-1H-pyrazole-4-carboxamide]",< 1
2,"CC1(c2ccc3nc(Cn4cc(C(=O)NCc5ncn6ccc(Cl)cc56)cn4)cn3c2)CC1 [Example I-10, N-((7-chloroimidazo[1,5-a]pyridin-1-yl)methyl)-1-((6-(1-methylcyclopropyl)imidazo[1,2-a]pyridin-2-yl)methyl)-1H-pyrazole-4-carboxamide]",< 1
3,"Cc1c(C2CC2)ccc2nc(Cn3cc(C(=O)NCc4ncn5ccc(Cl)cc45)cn3)cn12 [Example I-13, N-((7-chloroimidazo[1,5-a]pyridin-1-yl)methyl)-1-((6-cyclopropyl-5-methylimidazo[1,2-a]pyridin-2-yl)methyl)-1H-pyrazole-4-carboxamide]",< 1
4,"O=C(NCc1ncn2ccc(Cl)cc12)c1cnn(Cc2cn3nc(C4CC4)ccc3n2)c1 [Example I-15, N-((7-chloroimidazo[1,5-a]pyridin-1-yl)methyl)-1-((6-cyclopropylimidazo[1,2-b]pyridazin-2-yl)methyl)-1H-pyrazole-4-carboxamide]",< 1
